Test results taken from PubChem BioAssay (NCI).
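Protocol summary: plate cells (96-well), add compound at 5 concentrations, incubate 48 h, interpolate endpoints linearly. Here, GI50 denotes the concentration required for 50% inhibition of growth. TGI denotes the concentration required for complete inhibition of growth.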

Legend:
Assay in all cases: inhibition of tumour cell growth, NCI panel, 48 h
M14 melanoma = system: M14 melanoma
HOP-62 NSCLC = system: HOP-62 NSCLC
NCI-H460 lung = system: NCI-H460 lung
COLO 205 colon = system: COLO 205 colon
A498 renal = system: A498 renal
LOX IMVI melanoma = system: LOX IMVI melanoma
HCT-15 colon = system: HCT-15 colon
DLD-1 colon = system: DLD-1 colon
HT29 colon = system: HT29 colon
LXFL 529 NSCLC = system: LXFL 529 NSCLC

Row | SMILES | TGI (M14 melanoma) | TGI (HOP-62 NSCLC) | TGI (NCI-H460 lung) | TGI (COLO 205 colon) | TGI (A498 renal) | TGI (LOX IMVI melanoma) | TGI (HCT-15 colon) | TGI (DLD-1 colon) | TGI (HT29 colon) | TGI (LXFL 529 NSCLC) | GI50 (M14 melanoma) | GI50 (HOP-62 NSCLC) | GI50 (NCI-H460 lung) | GI50 (COLO 205 colon) | GI50 (A498 renal) | GI50 (LOX IMVI melanoma) | GI50 (HCT-15 colon) | GI50 (DLD-1 colon) | GI50 (HT29 colon) | GI50 (LXFL 529 NSCLC)
1 | Cc1ccc([N+](=O)[O-])cc1NC(=O)c1cccc([N+](=O)[O-])c1O | 56.7 µM | 34 µM | > 100 µM | 32.2 µM | 48 µM | > 100 µM | > 100 µM | > 100 µM | > 100 µM | 78.1 µM | – | – | – | – | – | – | – | – | – | –
2 | Fc1ccccc1C1SCc2nc3ccccc3n21 (configuration not stated) | – | – | > 100 µM | > 100 µM | > 100 µM | – | – | > 100 µM | > 100 µM | > 100 µM | – | – | – | – | – | – | – | – | – | –
3 | NCCN.NCCN.O=C([O-])CCl.O=C([O-])CCl.[Co+3].[O-][Cl+3]([O-])([O-])[O-] | > 100 µM | > 100 µM | > 100 µM | > 100 µM | > 100 µM | > 100 µM | > 100 µM | > 100 µM | > 100 µM | > 100 µM | > 100 µM | > 100 µM | > 100 µM | > 100 µM | > 100 µM | > 100 µM | > 100 µM | > 100 µM | > 100 µM | > 100 µM
4 | COc1ccc(S(=O)(=O)N/N=C/c2cc(I)cc([N+](=O)[O-])c2O)cc1OC | > 100 µM | – | > 100 µM | > 100 µM | > 100 µM | > 100 µM | > 100 µM | > 100 µM | > 100 µM | 70.3 µM | – | – | – | – | – | – | – | – | – | –
5 | COc1ccc(CC(=O)NCCc2ccc(OC)c(OC)c2)cc1Br | – | > 100 µM | > 100 µM | > 100 µM | > 100 µM | > 100 µM | – | > 100 µM | > 100 µM | > 100 µM | – | – | – | – | – | – | – | – | – | –
6 | Cc1cc(NS(=O)(=O)c2ccc(NC(=O)c3ccc(Cl)c4c(Nc5ccc(S(=O)(=O)N=C(N)N)cc5)c5ccccc5nc34)cc2)no1 | > 100 µM | 97.7 µM | > 100 µM | – | > 100 µM | 98.7 µM | > 100 µM | > 100 µM | > 100 µM | > 100 µM | – | – | – | – | – | – | – | – | – | –
7 | CN1CC[C@]2(C)c3cc(O)ccc3CC3CCCC1C32C (some centres not stated) | > 100 µM | > 100 µM | > 100 µM | > 100 µM | > 100 µM | > 100 µM | > 100 µM | > 100 µM | > 100 µM | > 100 µM | – | – | – | – | – | – | – | – | – | –
8 | COc1cc(C(O)C(=O)c2nc3ccc([N+](=O)[O-])cc3[nH]c2=O)ccc1O (configuration not stated) | > 100 µM | > 100 µM | > 100 µM | > 100 µM | 97 µM | > 100 µM | > 100 µM | > 100 µM | > 100 µM | > 100 µM | – | – | – | – | – | – | – | – | – | –
9 | CC(C)(CN1CCCCC1)C(=O)/C=C/c1ccc(Cl)cc1 | 9.79 µM | – | 8.21 µM | 17.5 µM | 10.8 µM | 12.5 µM | 9.85 µM | 22.9 µM | 11.7 µM | 9.75 µM | – | – | – | – | – | – | – | – | – | –
10 | Cc1c(C(=O)CC(=O)C(=O)Nc2ccc(Cl)cc2)[n+](=O)c2ccccc2n1[O-] | > 100 µM | – | > 100 µM | > 100 µM | > 100 µM | – | > 100 µM | > 100 µM | – | > 100 µM | – | – | – | – | – | – | – | – | – | –
11 | C/C=C1/CCC2c3[nH]c4ccccc4c3CCN2C1 (configuration not stated) | 33.2 µM | > 100 µM | > 100 µM | – | > 100 µM | – | – | > 100 µM | > 100 µM | > 100 µM | – | – | – | – | – | – | – | – | – | –
12 | O=C(O)CCC(NC(=O)c1ccccc1)C(=O)O (configuration not stated) | > 100 µM | > 100 µM | > 100 µM | > 100 µM | > 100 µM | > 100 µM | > 100 µM | > 100 µM | > 100 µM | > 100 µM | – | – | – | – | – | – | – | – | – | –
13 | O=C1CCCC(=O)N1CCc1c[nH]c2ccccc12 | > 100 µM | > 100 µM | > 100 µM | – | > 100 µM | – | – | > 100 µM | > 100 µM | > 100 µM | – | – | – | – | – | – | – | – | – | –
14 | c1ccc2cc3[s+]snc3cc2c1 | > 100 µM | > 100 µM | > 100 µM | > 100 µM | > 100 µM | > 100 µM | > 100 µM | > 100 µM | > 100 µM | > 100 µM | – | – | – | – | – | – | – | – | – | –
15 | CN(C)CCNC(=O)c1cccc2[nH]c(-c3cccnc3)nc12 | 43.8 µM | 44.1 µM | 49.9 µM | 32.5 µM | 30.6 µM | 48.7 µM | 79.6 µM | 73.1 µM | 92.8 µM | – | – | – | – | – | – | – | – | – | – | –
16 | O=C(NCCCCCCNC(=O)OCCSCCn1cc(C(=O)NC(=O)OCc2ccccc2)c(=O)[nH]c1=O)OCCSCCn1cc(C(=O)NC(=O)OCc2ccccc2)c(=O)[nH]c1=O | > 100 µM | > 100 µM | > 100 µM | > 100 µM | > 100 µM | > 100 µM | > 100 µM | > 100 µM | > 100 µM | > 100 µM | – | – | – | – | – | – | – | – | – | –
17 | O=C(O)CCSC(=O)Nc1ccccc1F | > 100 µM | > 100 µM | > 100 µM | > 100 µM | > 100 µM | > 100 µM | > 100 µM | – | > 100 µM | > 100 µM | – | – | – | – | – | – | – | – | – | –
18 | O=C1C2C=CC(C2)C(c2ccc(O)cc2)N1O (configuration not stated) | > 100 µM | > 100 µM | > 100 µM | > 100 µM | > 100 µM | – | – | > 100 µM | > 100 µM | > 100 µM | – | – | – | – | – | – | – | – | – | –
19 | Cc1ccc(NC(=O)C(=O)CC(=O)c2c(C)n([O-])c3ccccc3[n+]2=O)cc1 | 60.1 µM | > 100 µM | 77.4 µM | 55.2 µM | > 100 µM | 45.4 µM | 89.4 µM | – | 86.4 µM | > 100 µM | – | – | – | – | – | – | – | – | – | –
20 | O=c1nc(NC(c2ccccc2)(c2ccccc2)c2ccccc2)ccn1CCNCCn1ccc(NC(c2ccccc2)(c2ccccc2)c2ccccc2)nc1=O | 69.3 µM | 32.5 µM | 33.8 µM | 35.6 µM | 78 µM | 7.86 µM | > 100 µM | > 100 µM | 24.5 µM | 26.2 µM | – | – | – | – | – | – | – | – | – | –
21 | Cc1[nH]c(=O)n2c(C)nnc2c1C(=O)Nc1cc(Cl)cc(Cl)c1 | > 100 µM | 79.4 µM | > 100 µM | 79.4 µM | – | > 100 µM | 78.7 µM | > 100 µM | > 100 µM | > 100 µM | – | – | – | – | – | – | – | – | – | –
22 | C[C@]12CCC(=O)C(O)=C1CC[C@@H]1C2CC[C@]2(C)Nc3c(cnn3-c3ccccc3)CC12 (some centres not stated) | > 100 µM | > 100 µM | > 100 µM | – | > 100 µM | – | > 100 µM | > 100 µM | > 100 µM | > 100 µM | – | – | – | – | – | – | – | – | – | –
23 | O=C(O)CNS(=O)(=O)c1ccc(NC(=O)CI)cc1 | 44.3 µM | – | 64 µM | 96.8 µM | > 100 µM | 37.6 µM | 41.5 µM | 60.7 µM | 54.4 µM | 20.2 µM | – | – | – | – | – | – | – | – | – | –
24 | COC(=O)[C@]12CC=C3O[C@@H]4OC5(CCCCC5)O[C@@H]4C3[C@@H]1C(=O)CCC2=O (some centres not stated) | > 100 µM | > 100 µM | > 100 µM | > 100 µM | > 100 µM | > 100 µM | > 100 µM | > 100 µM | > 100 µM | > 100 µM | – | – | – | – | – | – | – | – | – | –
25 | CCN(CC)CCn1c2ccccc2c(=O)c2c(O)ccc(O)c21 | 63.6 µM | 86.5 µM | > 71.9 µM | 45.1 µM | > 100 µM | 36.3 µM | > 58.5 µM | – | 59.8 µM | 41.7 µM | – | – | – | – | – | – | – | – | – | –
26 | COc1ccccc1C1c2cc3c(cc2OC(O)(CO)C1C(=O)O)OCO3 (configuration not stated) (tested in a mixture with another compound) | > 100 µM | > 100 µM | > 100 µM | > 100 µM | > 100 µM | > 100 µM | > 100 µM | > 100 µM | > 100 µM | > 100 µM | – | – | – | – | – | – | – | – | – | –
